Experimental data published in publication PMC10216478, “Development of a Non-Peptide Angiotensin II Type 1 Receptor Ligand by Structural Modification of Olmesartan as a Biased Agonist” (Biomedicines, 2023).
Where a chain is given by its changes, count along the chain named.

Legend:
AT1 Q257A receptor = molecular target: T1, AT1 Q257A receptor (Rattus norvegicus, UniProt P25095, Q257A); assay: IP production assay in COS7 cells expressing AT1-Q257A receptor; format: cell-based; details: 1 µM ligands or 0.1 µM Ang II, 30 min, n = 5, vs. (-)
T1 construct: expressed in transfected cells; host or cells: COS7
T1 sequence (P25095 1-359 Q257A): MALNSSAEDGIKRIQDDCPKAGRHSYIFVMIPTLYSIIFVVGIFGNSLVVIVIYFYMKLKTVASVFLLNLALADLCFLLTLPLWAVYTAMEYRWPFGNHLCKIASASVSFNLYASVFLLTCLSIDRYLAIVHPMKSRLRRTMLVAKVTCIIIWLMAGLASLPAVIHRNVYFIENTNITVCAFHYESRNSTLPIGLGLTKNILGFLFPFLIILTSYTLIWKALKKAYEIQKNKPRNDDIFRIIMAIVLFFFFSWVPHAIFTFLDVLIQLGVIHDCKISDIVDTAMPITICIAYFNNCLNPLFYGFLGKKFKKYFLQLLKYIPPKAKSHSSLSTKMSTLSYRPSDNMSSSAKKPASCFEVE
Description: (§1) The synthetic rat AT1 receptor gene, which was cloned in the shuttle expression vector pMT-2, was used for expression and mutagenesis, as described previously. […] In the experiments, cells were grown without a cell-growth supplement. To express the AT1 receptor protein, 10 µg of purified plasmid DNA per 10^7 cells was used in the transfection. Wild-type and mutated AT1 receptors were transiently transfected into cells using Lipofectamine 2000 liposomal reagent (Roche Applied Science, Penzberg, Germany). Cells were plated and grown and were 70–90% confluent at the time of transfection. We incubated plasmid DNA (10 µg)–lipid (10 µL) complexes for 5 min at room temperature and added and incubated the complexes with cells for 24 h. We then analyzed the parameters in transfected cells. […] Transfected cells that had been cultured for 48–72 h were harvested. Cell membranes were prepared using the nitrogen Parr bomb disruption or freeze–thaw methods.
(§2) Ligand (such as agonist or antagonist)-induced IP production through the AT1 receptor in transfected COS7 cells transiently expressing the AT1 receptor was measured to evaluate cell signaling as a second messenger for controlling blood pressure, since the increases in the intracellular Ca^2+ concentration were the result of IP accumulation, which indicated vasoconstriction. As a surrogate model with higher levels of AT1 receptor expression, COS7 cells are suitable for IP measurement because it is easy to detect differences in IP production. Cells were labeled for 24 h with [^3H]-myoinositol at 37 °C in DMEM containing 10% FBS. Next, the cells were washed with buffer 3 times and incubated with a medium containing 10 mM LiCl for 20 min; 0.1 µM Ang II or 1 µM ligands were added and incubation was continued for another 30 min at 37 °C. After incubation, the medium was removed, and total soluble IP was extracted from the cells using the perchloric acid extraction method, as described previously. Cells were plated at a field density of 5 × 10^3 cells/cm^2 in 60 mm dishes and cultured in a fresh growth medium at 37 °C in a DMEM 5% CO2 incubator. […] The culture medium was changed 48 h after transfection and 1.5 mL of 1 μCi/mL of [^3H]-myoinositol was added to each 60-mm dish at 37 °C in DMEM containing 10% FBS. After labeling, the cells were washed with buffer 3 times and incubated with a medium containing 10 mM LiCl for 20 min. The indicated concentration of ligands was added and incubation was continued for an additional 30 min at 37 °C. After incubation, the medium was removed, and total soluble IP was extracted from the cells using the perchloric acid extraction method. Total IP production was expressed as the sum of radioactivity, as described previously.

AT1 wild-type receptor = molecular target: T2, AT1 wild-type receptor (Rattus norvegicus, UniProt P25095); assay: IP production assay in COS7 cells expressing AT1 wild-type receptor; format: cell-based; details: for Effect on IP production: AT1 wild-type receptor, COS7 cells, 1 µM ligands or 0.1 µM Ang II, 30 min, n = 5, vs. (-); for Mode of action with regard to IP production: authors' classification from IP production at AT1 wild-type receptor
T2 construct: expressed in transfected cells; host or cells: COS7
T2 sequence (P25095 1-359): T1 sequence (P25095 1-359 Q257A) with A257Q
Description: as §1, §2

SMILES	Effect on IP production (AT1 Q257A receptor)	Effect on IP production (AT1 wild-type receptor)	Mode of action with regard to IP production (AT1 wild-type receptor)
CCCc1nc(C(C)(C)O)c(C(=O)O)n1Cc1ccc(-c2ccccc2-c2nnn[nH]2)cc1 [Olmesartan, olmesartan]	significant reduction in basal IP production levels	significant reduction in basal IP production levels	inverse agonism
CCCc1nc(C(C)(C)O)c(C(N)=O)n1Cc1ccc(-c2ccccc2-c2nnn[nH]2)cc1 [R239470]	none of the compounds (R239470, R781253, and R794847) affected IP production	did not change IP production	neutral antagonist
CCCc1nc(C(C)(C)O)c(C(=O)O)n1Cc1ccc(-c2cc(Cc3ccc(O)cc3)ccc2-c2nnn[nH]2)cc1 [R781253]	none of the compounds (R239470, R781253, and R794847) affected IP production	significantly decreased	inverse agonist
CCCc1nc(C(C)(C)O)c(C(N)=O)n1Cc1ccc(-c2cc(Cc3ccc(O)cc3)ccc2-c2nnn[nH]2)cc1 [R794847]	none of the compounds (R239470, R781253, and R794847) affected IP production	increased IP production	agonist
